ChEMBL document CHEMBL1128929, “A novel nitro-substituted seco-CI: Application as a reductively activated adept prodrug” (Bioorg Med Chem Lett, 1996)

Experiment: Compound was evaluated for its inhibitory activity against UV4 cell in the presence of drug alone.
Format: functional, cell-based, Cricetulus griseus

SMILES | IC50 [nM]
COc1cc2cc(C(=O)N3CC(CCl)c4ccc(NC(=O)OCc5ccc([N+](=O)[O-])cc5)cc43)[nH]c2c(OC)c1OC (configuration not stated) | 15000
COc1cc2cc(C(=O)N3CC(CCl)c4ccc(N)cc43)[nH]c2c(OC)c1OC (configuration not stated) | 23.6
COc1cc2cc(C(=O)N3CC(CCl)c4ccc([N+](=O)[O-])cc43)[nH]c2c(OC)c1OC (configuration not stated) | 2310

Experiment: Compound was evaluated for its inhibitory activity against UV4 cell in the presence of drug along with NADH and enzyme(Escherichia coli B nitroreductase)
Format: functional, cell-based, Cricetulus griseus

SMILES | IC50 [nM]
COc1cc2cc(C(=O)N3CC(CCl)c4ccc(NC(=O)OCc5ccc([N+](=O)[O-])cc5)cc43)[nH]c2c(OC)c1OC (configuration not stated) | 598
COc1cc2cc(C(=O)N3CC(CCl)c4ccc(N)cc43)[nH]c2c(OC)c1OC (configuration not stated) | 27.8
COc1cc2cc(C(=O)N3CC(CCl)c4ccc([N+](=O)[O-])cc43)[nH]c2c(OC)c1OC (configuration not stated) | 6.4

Experiment: Compound was evaluated for its inhibitory activity against UV4 cell in the presence of drug and NADH.
Format: functional, cell-based, Cricetulus griseus

SMILES | IC50 [nM]
COc1cc2cc(C(=O)N3CC(CCl)c4ccc(NC(=O)OCc5ccc([N+](=O)[O-])cc5)cc43)[nH]c2c(OC)c1OC (configuration not stated) | 11300
COc1cc2cc(C(=O)N3CC(CCl)c4ccc(N)cc43)[nH]c2c(OC)c1OC (configuration not stated) | 26.6
COc1cc2cc(C(=O)N3CC(CCl)c4ccc([N+](=O)[O-])cc43)[nH]c2c(OC)c1OC (configuration not stated) | 237

Experiment: Ratio of IC50 (drug alone)/IC50(drug+NADH+enzyme)
Format: functional

SMILES | Ratio
COc1cc2cc(C(=O)N3CC(CCl)c4ccc(NC(=O)OCc5ccc([N+](=O)[O-])cc5)cc43)[nH]c2c(OC)c1OC (configuration not stated) | 0.9
COc1cc2cc(C(=O)N3CC(CCl)c4ccc(N)cc43)[nH]c2c(OC)c1OC (configuration not stated) | 23.2
COc1cc2cc(C(=O)N3CC(CCl)c4ccc([N+](=O)[O-])cc43)[nH]c2c(OC)c1OC (configuration not stated) | 402
